Tests used:
[1] = target: T1, Bromodomain-containing protein 2 (Homo sapiens, UniProt P25440); test: (§1) FP Competitive Binding Assay (No.350): Fluorescence Polarization (FP) competitive binding studies (see above) were carried out using the FAM labeled fluorescent probe Cpd. No. 350 to determine binding affinities of representative compounds to both BD1 and BD2 of BRD2, BRD3, and BRD4 proteins. Equilibrium dissociation constants (Id) values of Cpd. […] Final Cpd. […] Kd values of Cpd.
[2] = target: T2, Bromodomain-containing protein 3 (Homo sapiens, UniProt Q15059); test: as §1
T2 sequence (Q15059 whole entry): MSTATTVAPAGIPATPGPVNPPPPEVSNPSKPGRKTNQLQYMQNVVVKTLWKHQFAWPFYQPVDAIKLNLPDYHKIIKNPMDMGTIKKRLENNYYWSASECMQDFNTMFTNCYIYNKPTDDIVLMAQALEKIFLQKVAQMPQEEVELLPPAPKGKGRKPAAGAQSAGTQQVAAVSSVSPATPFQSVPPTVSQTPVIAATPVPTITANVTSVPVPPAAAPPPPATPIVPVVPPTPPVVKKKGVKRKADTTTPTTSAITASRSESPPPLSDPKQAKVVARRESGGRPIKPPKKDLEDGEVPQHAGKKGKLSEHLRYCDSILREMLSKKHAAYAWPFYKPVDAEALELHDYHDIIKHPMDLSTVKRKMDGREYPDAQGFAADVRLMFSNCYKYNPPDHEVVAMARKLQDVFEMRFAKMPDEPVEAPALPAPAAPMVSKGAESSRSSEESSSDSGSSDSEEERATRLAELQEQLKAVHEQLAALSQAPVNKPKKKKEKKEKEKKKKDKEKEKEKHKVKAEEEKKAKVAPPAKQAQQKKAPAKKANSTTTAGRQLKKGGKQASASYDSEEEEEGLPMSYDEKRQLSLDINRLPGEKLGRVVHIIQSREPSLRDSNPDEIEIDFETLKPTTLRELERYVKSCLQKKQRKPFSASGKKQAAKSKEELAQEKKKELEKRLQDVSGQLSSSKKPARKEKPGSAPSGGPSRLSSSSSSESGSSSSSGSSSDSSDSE

[3] = target: Bromodomain-containing protein 4 (Homo sapiens, UniProt O60885); test: as §1
[4] = target: T1, Bromodomain-containing protein 2; test: as §1; remark: listed apart in the source
[5] = target: T2, Bromodomain-containing protein 3; test: as §1; remark: listed apart in the source

T1 sequence (P25440 whole entry): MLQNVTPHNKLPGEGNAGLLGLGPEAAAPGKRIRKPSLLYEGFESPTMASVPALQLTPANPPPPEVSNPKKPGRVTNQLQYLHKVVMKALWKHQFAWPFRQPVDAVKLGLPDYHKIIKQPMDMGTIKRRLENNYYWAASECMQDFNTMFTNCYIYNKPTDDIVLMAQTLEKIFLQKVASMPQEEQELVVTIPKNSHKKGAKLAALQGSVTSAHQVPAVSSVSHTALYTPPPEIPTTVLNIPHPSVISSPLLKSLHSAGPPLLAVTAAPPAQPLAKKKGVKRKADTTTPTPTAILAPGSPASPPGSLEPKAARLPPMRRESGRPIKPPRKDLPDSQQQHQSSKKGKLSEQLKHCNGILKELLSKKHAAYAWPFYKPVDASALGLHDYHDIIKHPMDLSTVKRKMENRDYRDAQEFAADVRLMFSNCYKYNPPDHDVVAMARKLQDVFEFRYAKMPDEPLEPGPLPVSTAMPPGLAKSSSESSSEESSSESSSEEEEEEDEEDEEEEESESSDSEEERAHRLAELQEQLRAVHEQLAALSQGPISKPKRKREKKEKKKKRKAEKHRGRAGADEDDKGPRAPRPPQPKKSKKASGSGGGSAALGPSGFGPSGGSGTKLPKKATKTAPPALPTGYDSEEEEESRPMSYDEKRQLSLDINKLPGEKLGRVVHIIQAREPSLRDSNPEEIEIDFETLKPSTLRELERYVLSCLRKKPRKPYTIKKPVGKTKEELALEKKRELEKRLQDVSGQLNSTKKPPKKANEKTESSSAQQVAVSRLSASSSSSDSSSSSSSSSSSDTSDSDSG

SMILES | Ki [1] [nM] | Ki [2] [nM] | Ki [3] [nM] | Ki [4] [nM] | Ki [5] [nM]
COc1cc2c(cc1-c1c(C)noc1C)[nH]c1nc(C)nc(-c3ccc(NC(=O)N4CCN(C)CC4)c4ccccc34)c12 | 4.6 | 7.5 | 11 | 2.6 | 0.82
COc1cc2c(cc1-c1c(C)noc1C)[nH]c1nc(C)nc(-c3cc(C(=O)NC4CCN(C)CC4)cc(C(C)(C)C)c3)c12 | 2.2 | 6.3 | 9 | 5.2 | 1.1
COc1cc2c(cc1-c1c(C)noc1C)[nH]c1nc(C)nc(-c3ccc(NC(=O)N4CCN(C5COC5)CC4)c4ccccc34)c12 | 17 | 23 | 39 | 7.8 | 3.5

Source: ChEMBL document CHEMBL5725377, “BET bromodomain inhibitors and therapeutic methods using the same” (2017)
